From US10905757B2, “Cross-reactive T cell epitopes of HIV, SIV, and FIV for vaccines in humans and cats” (priority 2012, dated 2021)
Ends that are not written are not given here.

How the values were obtained:
Type in all cases: cell-based, human
PBMC from HIV+ subjects = test: IFNγ ELISpot, PBMC from HIV+ subjects; conditions: for IFNγ (positive/total): positive responses over total tested, F3 responders (H3 responders for H3-3)
Procedure: 1.0×10^5-2.0×10^5 PBMCs were stimulated with peptides (15 μg peptide/well) in ELISpot plates for 18 hours in AIMS V medium (at 10% normal human serum). The spots were counted with an ELISpot reader and adjusted to spot forming units (SFU) per 10^6 cells.
Positive reactivity was defined at ≥70 SFU/10^6 cells after subtracting the background derived from non-specific peptide control or media control, and the average of 3 HIV-1 negative controls (<30 SFU/10^6 cells).
ELISpot assays. Enzyme-linked immunosorbent spot assays (ELISpot) for IFNγ (R&D Systems, Minneapolis, Minn.) were performed with AIM V medium containing 5% heat-inactivated (56° C., 30 min) human serum as previously described (Abbott et al. (2012)). The PBMC from HIV+ subjects were stimulated with either peptide pool (4-5 consecutive peptides per pool at 5 μg per peptide) or individual peptide (15 μg/well). The peptides were 11-16 aa in length with 8-10 aa overlap. The results were analyzed with an ELISpot reader (MVS Pacific LLC, Minneapolis, Minn.) and adjusted to spot forming units (SFU) per 10^6 cells, after subtraction of the average medium control for each subject. The PBMC from HIV+ subjects were stimulated with T-cell mitogen, phytohemaglutinin A (PHA, 5 μg/mL), as positive control. At a positive threshold of 70 SFU, HIV− subjects had no substantial IFNγ responses (>50 SFU) to HIV and FIV peptide pools.
ELISpot assays. Human enzyme-linked immunosorbent spot assays (ELISpot) (R&D Systems, Cat #XEL285) which measure IFNγ production were performed (Abbott et al. 2011). The positive threshold for human IFNγ responses was >50 spot forming units (SFU)/10^6 cells. The final value for each subject was derived after subtracting the result of each HIV^+ subject with the media control followed by subtraction with the average response of the HIV^− subjects which was rarely more than 10 SFU.

[1] = tested on: CD3+CD8+ T cells from HIV+ subjects; test: CFSE-proliferation, CD3+CD8+ T cells from HIV+ subjects; conditions: positive responses over total tested; F3 responders (H3 responders for H3-3)
Procedure: 2×10^5-5×10^5 CFSE labeled PBMCs were incubated with 15-20 μg of peptides in 600 μL of RPMI media with 10% FBS for 5 days at 37° C. (5% CO2). After harvesting, they were labeled with allophycocyanin (APC), APC-H7, and Pacific Blue labeled monoclonal antibodies (MAb) to human CD3, CD4, and CD8, respectively and analyzed for T-cell proliferation by flow cytometry using BD LSRII (BD Biosciences). The proliferating CD4^+ or CD8^+ T cell populations were defined from the CD3^+ cell population as either CD3^+CD8^+ or CD3^+CD4^+T cells (mutually exclusive) with low CFSE (CFSE^low) staining.
Flow cytometry (FACS) for carboxyfluoresein diacetate succinimide ester (CFSE)-proliferation and intracellular cytotoxin staining (ICS). The CFSE-proliferation analysis was performed on PBMC according to the manufacturer's protocol (Invitrogen, Carlsbad, Calif.) and processed as previously described (Lichterfeld et al. (2004)). Modifications consisted of using 2.0-5.0×10^5 CFSE-labeled cells stimulated for 5 days (37° C., 5% CO^2) with 30 μg/well of total peptides in a pool (15 μg/well for individual peptide, Table 10) or 5 μg/mL PHA in AIM V medium containing 25 μg/mL of gentamycin and 10% heat-inactivated human serum. Subsequently these cells were harvested and labeled with the LIVE/DEAD fixable yellow dye (Invitrogen) and then treated 5 min with anti-CD16/CD32 antibody (Biolegend, San Diego, Calif.) for blocking non-specific binding before phenotype-specific antibodies. The following antibodies were used for the CFSE-proliferation analysis: anti-CD4 APC, anti-CD3 APC-H7, and anti-CD8 Pacific Blue (BD Biosciences, San Jose, Calif.).
(§1) In both analyses, 1.0-2.0×10^4 cells were fixed in phosphate-buffered saline (PBS) containing 2% paraformaldehyde and analyzed on BD LSRII using […] Software (BD Biosciences), with a positive threshold of 3% CFSE^low for CFSE-proliferation and 1% T cells expressing cytotoxin for ICS. The final value for each subject was derived after subtraction of the subject's medium control and the average value of peptide-stimulated cells from uninfected control subjects.
(§2) Flow cytometry (FACS) for measuring CFSE-proliferation and intracellular cytokine staining (ICS). Carboxyfluorescein diacetate succinimide ester (CFSE)-proliferation analysis was performed according to the manufacturer's protocol (Invitrogen) and processed as previously described (Lichterfeld et al. 2004) using the following modification: 2.5-5.0×10^5 CFSE-labeled PBMC stimulated for 4-5 days (37° C., 5% CO2) with 15-30 μg of peptides in culture media (AIM V medium, 25 μg/mL gentamycin, and 10% heat-inactivated fetal bovine serum). The ICS analysis was performed as previously described (Horton et al. 2007; Pattacini et al. 2012).
(§3) The antibodies used for the proliferation analysis consisted of anti-CD4 allophycocyanin (APC) anti-CD3 APC-H7, and anti-CD8 Pacific Blue, and those for ICS were anti-CD3 APC-H7, anti-CD4 BD Horizon V450, anti-CD8 FITC, anti-granzyme B (GrzB) Alexa 700, anti-granzyme A (GrzA) PE (BD Biosciences, Cat #555349, 560176, 558207, 560345, 555366, 560213, 558904), and anti-perforin PerCP (Abcam, Cat #ab86319). Both analyses were performed with BD LSRII and […]™ Software (BD Biosciences), using a positive threshold of >1% CFSE^low for CFSE-proliferation except for ICS studies with threshold of >0.1% T cells expressing cytotoxin. The final value for each subject was derived after subtracting the result of each HIV^+ subject with the media control followed by subtraction with the average response of the media-control subtracted HIV^− subjects.

[2] = tested on: CD4+ T cells from HIV+ subjects; test: Intracellular cytotoxin staining (ICS), CD4+ T cells from HIV+ subjects; parameters: key to CD4^+ T-cell cytotoxins (4C): positive (+); negative (−) response; inhibitory (↓); not done (n); conditions: HIV^+ subjects compared to HIV^− control group
Procedure: (§4) Briefly, 1×10^6PBMCs (freshly isolated) are stimulated with 20 μg of peptides for 6 hours in a total volume of 200 μL in a 96-well plate in presence of Golgi transport inhibitor (37° C., 5% CO2). The cells are processed as previously described (Horton et al. (2007)). Cells were stained with the LIVE/DEAD® fixable yellow dye (Invitrogen, Eugene, Oreg.). The monoclonal antibodies fluorochome-conjugated to human cytokines used are: APC-H7 to CD3 (clone SK7); BD Horizon V450 to CD4 (clone RPA-T4); Qdot to CD8 (clone 3B5); PE-cy7 to IFN-γ (clone 4S.B3); APC to IL-2 (clone MQ1-17H12) PerCP to perforin (clone B-D48); Alexa F1.700 to granzyme-B (clone GB11) and PE to granzyme-A (clone CB9). The flow cytometry data is collected using BD LSRII and analyzed with the FACS DIVA software.
(§5) The ICS analysis (Horton et al. (2007)) involved stimulating 0.5-1.0×10^6 freshly isolated PBMC for 6 h with the same peptide stimulant and culture conditions as the proliferation analysis in the presence of 1 μg/mL of Golgi transport inhibitor and monensin followed by labeling with LIVE/DEAD fixable yellow dye and then treatment with anti-CD16/CD32 antibody and T-cell phenotypic antibodies. The cells were subsequently fixed and permeabilized with Cytofix/Cytoperm solution (BD Biosciences) before reaction with anti-cytotoxin antibodies. The antibodies consisted of anti-CD3 APC-H7, anti-CD4 BD Horizon V450, and anti-CD8 FITC followed by anti-GrzB Alexa 700 and anti-GrzA PE (all from BD Biosciences), and anti-perforin PerCP (Abcam, Boston, Mass.).
as §1, §2, §3

[3] = tested on: CD8+ T cells from HIV+ subjects; test: Intracellular cytotoxin staining (ICS: perforin, GrzA, GrzB, CD107a), CD8+ T cells from HIV+ subjects; parameters: key to CD8^+ T-cell cytotoxins (8C): positive (+); negative (−) response; inhibitory (↓); not done (n); conditions: for CD8^+ T-cell cytotoxins (8C): HIV^+ subjects compared to HIV^− control group
Procedure: as §4, §5, §1, §2, §3

[4] = tested on: CD4+ or CD8+ T cells from HIV+ subjects; test: Intracellular cytotoxin staining (ICS), CD4+ or CD8+ T cells from HIV+ responders; conditions: responders to Fp9 or Fp14 peptide pools
Procedure: Briefly, 1×10^6PBMCs (freshly isolated) are stimulated with 20 μg of peptides for 6 hours in a total volume of 200 μL in a 96-well plate in presence of Golgi transport inhibitor (37° C., 5% CO2). […] Cells were stained with the LIVE/DEAD® fixable yellow dye (Invitrogen, Eugene, Oreg.). […] The flow cytometry data is collected using BD LSRII and analyzed with the FACS DIVA software.
The cells were subsequently fixed and permeabilized with Cytofix/Cytoperm solution (BD Biosciences) before reaction with anti-cytotoxin antibodies. The antibodies consisted of anti-CD3 APC-H7, anti-CD4 BD Horizon V450, and anti-CD8 FITC followed by anti-GrzB Alexa 700 and anti-GrzA PE (all from BD Biosciences), and anti-perforin PerCP (Abcam, Boston, Mass.).
as §1
Flow cytometry (FACS) for measuring CFSE-proliferation and intracellular cytokine staining (ICS).
Both analyses were performed with BD LSRII and […]™ Software (BD Biosciences), using a positive threshold of >1% CFSE^low for CFSE-proliferation except for ICS studies with threshold of >0.1% T cells expressing cytotoxin.

Substance | IFNγ (positive/total) (PBMC from HIV+ subjects) | CD8^+ T Proliferation (positive/total) [1] | CD4^+ T-cell cytotoxins (4C) [2] | CD8^+ T-cell cytotoxins (8C) [3] | further results
FIV F3-3m4 (KKKSTKWRKLIDFRV) | 0/9 | 0/5 | – | – | –
EQNTAEVKLYLKQSL [Fp14-2] | – | – | + | + | –
KKKDSTKWRKLVDFR [H3-3] | – | – | – | – | IFNγ response of H3 responders retested (PBMC from HIV+ subjects; three H3 responders tested on or after the second year): 0/3
FIV F3-3m3 (KKKSGKWRMLVDFRV) | 0/9 | 0/5 | – | – | –
FIV F3-3 (KKKSGKWRMLIDFRV) | 13/13 | 6/9 | – | – | –
CAEV & MVV (KKKSGKWRMLIDFRE) | 1/9 | 0/5 | – | – | –
AEVKLYLKQSLSIA [Fp14-3] | – | – | + | + | cytotoxin expression / CTL-associated activity in CD8+ T cells (in words) [3]: highest frequency and levels; HIV+ subjects whose CD8+ T cells responded with one or more cytotoxins ([3]; five HIV+ subjects, individual 13-15mer peptides): five
ASQEVKNWMTETLLV [Hp15-2] | – | – | + | + | –
DQEQNTAEVKLYLK [Fp14-1] | – | – | + | + | Cytotoxins [4]: High Cytototoxins (The cytotoxin result is considered high when four or five subjects express one or more cytotoxins in the CD8^+ T cells)
